In assay [1] the target is Substance-P receptor (Cavia porcellus) (UniProt P30547). The assay is described as follows: Evaluated for the binding affinity against NK1 receptor at 1 uM.
Target sequence in this assay (P30547 whole entry, looked up): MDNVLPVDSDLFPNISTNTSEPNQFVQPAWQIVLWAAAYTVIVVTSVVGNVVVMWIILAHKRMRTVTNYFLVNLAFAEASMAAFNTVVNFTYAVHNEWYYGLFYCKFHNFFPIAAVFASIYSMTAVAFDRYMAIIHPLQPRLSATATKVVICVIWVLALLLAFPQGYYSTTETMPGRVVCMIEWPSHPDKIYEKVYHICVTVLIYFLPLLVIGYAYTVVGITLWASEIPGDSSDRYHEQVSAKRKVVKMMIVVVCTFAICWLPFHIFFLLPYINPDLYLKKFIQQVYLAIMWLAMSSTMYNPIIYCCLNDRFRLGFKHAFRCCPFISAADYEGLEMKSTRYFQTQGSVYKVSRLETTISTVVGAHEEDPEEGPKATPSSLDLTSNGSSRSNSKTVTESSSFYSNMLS
Assay [2] concerns the target T1, Substance-P receptor (Cavia porcellus, UniProt P30547). Kind of assay: Evaluated for the binding affinity against NK1 receptor.
The target of assay [3] is T1, Substance-P receptor. Kind of assay: Evaluated for the binding affinity towards NK1 receptor in the striatal membranes of guinea pig. Type of assay: cell membranes, Striatum, Membrane.
The target of assay [4] is Substance-P receptor (Cavia porcellus) (UniProt P30547). The note with it: Striatum, Membrane, 10 uM.
Target sequence in this assay (P30547 whole entry): as the sequence (P30547 whole entry, looked up) above
Description: Evaluated for the binding affinity towards NK1 receptor in the striatal membranes of guinea pig at 10 uM
The target is the same in assay [5]. The assay is described as follows: Evaluated for the binding affinity against NK1 receptor.
Target sequence in this assay (P30547 whole entry, looked up): as above

pKd, pKi: −log10 of the molar value. Square brackets hold non-standard residues; d marks the D form. Peptide text beside a SMILES is read from it. pGlu = O=C1CC[C@@H](C(=O)O)N1

T1 sequence (P30547 whole entry): as the sequence (P30547 whole entry, looked up) above

As a reminder, the inhibition is how much of the control response was suppressed. Regarding `CC[C@H](C)[C@H](NC(=O)[C@H](Cc1ccccc1)NC(=O)[C@H](C)NC(=O)[C@H](CC(=O)O)NC(=O)[C@H](CCCCN)NC(=O)[C@H](CO)NC(=O)[C@@H]1CCCN1C(=O)[C@@H]1CCC(=O)N1)C(=O)NCC(=O)N[C@@H](CC(C)C)C(=O)N[C@@H](CCSC)C(N)=O` ([pGlu]PSKDAFIGLM-NH2), the inhibition in assay [1] came out at 15%.
What is called pKi is the Ki on a negative log10 scale, so that one unit is a factor of ten. Low readings indicate a high Ki, high ones a low Ki. `CC(C)C[C@H](NC(=O)CN(C)C(=O)[C@H](Cc1ccccc1)NC(=O)[C@H](Cc1ccccc1)NC(=O)[C@H](CCC(N)=O)NC(=O)[C@H](CCC(N)=O)NC(=O)[C@@H]1CCCN1C(=O)[C@H](CCCCN)NC(=O)[C@@H]1CCCN1C(=O)[C@@H](N)CCCNC(=N)N)C(=O)N[C@@H](CCS(C)(=O)=O)C(N)=O` showed a pKi in assay [2] of 7.70.
For orientation: pKd means the Kd on a negative log10 scale, so that one unit is a factor of ten. Low readings indicate a high Kd, high ones a low Kd. As for `[3H]c1cc([3H])cc([C@@H]2NCCC[C@@H]2NCc2ccccc2OC)c1`, the pKd in assay [3] is 9.49.
`COc1ccccc1CN[C@H]1CCCN[C@H]1c1ccccc1` (stereo in doubt; 6b) [CP-99994] showed a pKi in assay [3] of 9.57.
In turn, `COc1ccccc1CN[C@@H]1CCCN[C@@H]1c1ccccc1` returned an inhibition in assay [4] of 50%.
In the case of `CSCC[C@H](NC(=O)[C@H](CC(C)C)NC(=O)CNC(=O)[C@@H](NC(=O)[C@H](Cc1ccccc1)NC(=O)[C@H](CO)NC(=O)[C@H](CC(=O)O)NC(=O)[C@@H](NC(=O)[C@H](CCCCN)NC(=O)[C@@H](N)Cc1cnc[nH]1)[C@@H](C)O)C(C)C)C(N)=O` [NEUROKININ A], in assay [5], the pKi was 5.43.
`COc1ccccc1CN[C@H]1CCCN[C@H]1c1ccccc1` (stereo in doubt; 5) [CP-99994] showed a pKi in assay [3] of 9.77.

These data come from ChEMBL document CHEMBL1126863 (J Med Chem, 1993).
